Patent US20010016605A1, “Use of a phenylurea derivative for controlling crown and root rot in beet” (priority 2000, published 2001)

Tested on: Rhizoctonia solani AG 2-2
Experiment: Inhibition of the growth of Rhizoctonia solani AG 2-2 on nutrient medium / protective
Format: cell-based
Details: 0% = untreated control, 100% = complete inhibition of fungal growth, evaluation after 2 to 14 days
Description: Inhibition of the growth of Rhizoctonia solani AG 2-2 (anastomosis group 2-2)/protective
The substances are tested on suitable nutrient media for their activity against Rhizoctonia solani AG 2-2. To this end, the stated amount of active compound is in each case added to and intensively mixed with the stated amount of nutrient medium. The mixture in question is transferred into a culture vessel, inoculated with Rhizoctonia solani AG 2-2 and incubated at a suitable temperature. At certain intervals, the growth of the microorganism is assessed.
A nutrient medium of the following composition is used:
These components are dissolved in 1000 ml of distilled water and autoclaved at 121° C. for 30 minutes. The active compound at the stated concentration is then mixed with the nutrient medium. However, in all cases solvent and nutrient medium are present in the following weight ratio:
These mixtures are poured into Petri dishes having a diameter of 9 cm and a volume of 10 ml. Once the nutrient substrate has cooled and solidified, it is inoculated in the centre of the Petri dish with an inoculation piece having a diameter of 0.5 cm.
Evaluation is carried out after 2 to 14 days—depending on the rate of growth of the microorganism. The effect on the development of the culture is determined by comparing the individual test samples. 0% means an efficacy which corresponds to that of the untreated test variant. In contrast, an efficacy of 100% means complete inhibition of fungal growth.

[1] = active compound application rate 0.1 ppm in nutrient medium
[2] = active compound application rate 1 ppm in nutrient medium
[3] = active compound application rate 10 ppm in nutrient medium
[4] = active compound application rate 100 ppm in nutrient medium

SMILES | Efficacy in % [1] | Efficacy in % [2] | Efficacy in % [3] | Efficacy in % [4]
CO/C=C(/C(=O)OC)c1ccccc1Oc1cc(Oc2ccccc2C#N)ncn1 [azoxystrobin] | 45% | 48% | 59% | 64%
Cc1cc(O)no1 [hymexazol] | 7% | 5% | 8% | 35%
O=C(Nc1ccccc1)N(Cc1ccc(Cl)cc1)C1CCCC1 [pencycuron, N-4-chloro-benzyl-N-cyclopentyl-N′-phenylurea] | 70% | 98% | 100% | 100%
